Experimental data reported in PMC4546118 (SpringerPlus, 2015).

Experiments:
[1] = set-up: method as in Kusama et al. [1998]; details: binding to plasma proteins; ref Kusama et al. [1998]; cited from earlier work
[2] = Pharmacokinetics of VCM after intravenous administration to control and PN rats; details: 5 mg/kg intravenous bolus, two-compartment model, plasma LC/MS/MS
Procedure: (§1) Briefly, 3 days before the start of PN administration, cardiac catheterization was performed via the right jugular vein with a polyurethane catheter (0.6-mm ID, 0.9-mm OD, Primetech Co., Tokyo, Japan) in rats anesthetized with sodium pentobarbital, and given ampicillin for prevention of infection and local bupivacaine for pain relief. The cannulated rats were housed individually in cages with free access to food and water, and received saline at a rate of 0.1 mL/h for 3 days via the catheter with a syringe pump (ISIS Co., Ltd., Osaka, Japan), and daily ampicillin (2 mg/kg, 2-min infusion) for recovery from surgery. For PN administration, infusion of PN solution was started at a rate of 1.25 mL/h for 2 days under fasting and water-deprived conditions; PN solution consisting of glucose, amino acids, electrolytes, and vitamins (approximately 0.97 kcal/mL) was prepared by mixing PNTWIN No. 3 with VITAJECT (Fukushima et al. [2015]). Subsequently, PN administration was performed at a rate of 2.5 mL/h (viz., 60 mL/day, 58 kcal/day) for 7 days; likewise, the sham operated rats (control rats) underwent the same regimen with saline and allowed free access to food throughout the treatment.
(§2) Blood samples were taken 5, 15, 30, 45, 60, 90, 120, 180, 240, and 360 min after administration, and were centrifuged at 12,000 rpm for 15 min to collect the plasma fraction. In the intraduodenal administration study, the abdominal cavity was opened in anesthetized rats and the stomach was exposed. […] After administration, the incision was closed with a tissue adhesive and the pylorus was ligated. Blood samples were taken 5, 15, 30, 60, 90, 120, 180, 240, 300, and 360 min after administration, and plasma samples were collected by centrifugation. The collected plasma samples in both studies were immediately frozen at −80 °C until analysis.
(§3) After vortexing and centrifugation at 12,000 rpm for 15 min, the supernatant was diluted in 340 µL of distilled water and was passed through a filter, and 10 µL of the filtrate was injected into a Quattro Ultima LC/MS/MS system with a 2690 Separation Module (Waters Co, MA, UK). […] Mass spectrometry was conducted with electrospray ionization in positive mode (ESI+) under the following conditions: source temperature, 130 °C; cone voltage, 35 V; capillary voltage, 4.0 kV.
(§4) All pharmacokinetic analyses were performed using WinNonlin® Version 6.3 (Pharsight, Mountain View, CA). The structural parameters, including the absorption rate constant (ka), distribution volume of the central compartment (Vc), distribution volume of the peripheral compartment (Vp), total body clearance (CLtot), and distribution clearance (CLD2), and the secondary parameters including the maximum concentration (Cmax), time to maximum concentration (Tmax), distribution half-life (t1/2α), elimination half-life (t1/2β), and the area under the plasma concentration–time curve (AUC) were calculated. The bioavailability (F) was calculated using the following equation: F=AUCintraduodenal/Doseintraduodenal/AUCintravenous/Doseintravenous, where Dose represents the administered dosage.
(§5) All values are represented by the mean ± standard error (SE). Statistical differences of the means were assumed to be significant when p < 0.05 by the Mann–Whitney U test.

[3] = Pharmacokinetics of VCM after intraduodenal administration to control and PN rats; details: for F (bioavailability): 20 mg/kg intraduodenal vs 5 mg/kg intravenous, dose-normalised AUC ratio; for ka (absorption rate constant) / CLD2/F / Cmax (maximum concentration) / Vc/F / Vp/F / t1/2α (distribution half-life) / t1/2β (elimination half-life) / CLtot/F: 20 mg/kg intraduodenal, two-compartment model with first-order absorption, plasma LC/MS/MS; for ka (absorption rate constant): pylorus ligated
Procedure: as §1, §2, §3, §4, §5

[4] = PN rats (parenteral nutrition for 9 days), mean of n = 4
[5] = PN rats (parenteral nutrition for 9 days), mean of n = 4, p<0.05 vs control

## CN[C@H](CC(C)C)C(=O)N[C@H]1C(=O)N[C@@H](CC(N)=O)C(=O)N[C@H]2C(=O)N[C@H]3C(=O)N[C@H](C(=O)N[C@H](C(=O)O)c4cc(O)cc(O)c4-c4cc3ccc4O)[C@H](O)c3ccc(c(Cl)c3)Oc3cc2cc(c3O[C@@H]2O[C@H](CO)[C@@H](O)[C@H](O)[C@H]2O[C@H]2C[C@](C)(N)[C@H](O)[C@H](C)O2)Oc2ccc(cc2Cl)[C@H]1O [VCM, vancomycin]
[1]
  protein binding rate: approximately 47%
[2]; [4]
  AUC (area under the plasma concentration vs time curve): 807 µg·min/mL
  CLD2 (distribution clearance): 4.23 mL/min/kg
  CLtot (total body clearance): 6.22 mL/min/kg
  Vc (distribution volume of the central compartment): 0.234 L/kg
  Vp (distribution volume of the peripheral compartment): 0.223 L/kg
  t1/2α (distribution half-life): 13.72 min
[2]; control rats (sham, saline), male Wistar, mean of n = 4 (SE in own column)
  Vc (distribution volume of the central compartment): 0.214 L/kg
[2]; control rats, mean of n = 4
  AUC (area under the plasma concentration vs time curve): 788 µg·min/mL
  CLD2 (distribution clearance): 6.26 mL/min/kg
  CLtot (total body clearance): 6.44 mL/min/kg
  Vp (distribution volume of the peripheral compartment): 0.283 L/kg
  t1/2α (distribution half-life): 9.72 min
[3]; [5]
  F (bioavailability): 1.295%
  CLtot/F: 590 mL/min/kg
[3]; [4]
  ka (absorption rate constant): 0.256 min⁻¹
  CLD2/F: 1360 mL/min/kg
  Cmax (maximum concentration): 267 ng/mL
  Vc/F: 89 L/kg
  Vp/F: 29 L/kg
  t1/2α (distribution half-life): 26.2 min
  t1/2β (elimination half-life): 150 min
[3]; control rats (sham, saline), mean of n = 4
  ka (absorption rate constant): 0.214 min⁻¹
[3]; control rats, mean of n = 4
  F (bioavailability): 0.504%
  CLD2/F: 2050 mL/min/kg
  CLtot/F: 1340 mL/min/kg
  Cmax (maximum concentration): 111 ng/mL
  Vc/F: 158 L/kg
  Vp/F: 107 L/kg
  t1/2α (distribution half-life): 31.4 min
  t1/2β (elimination half-life): 174 min
